From patent US6713506B2, “Tea polyphenol esters and analogs thereof for cancer prevention and treatment” (University of South Florida, priority 2000, dated 2004) come the findings set out here.

Non-standard residues stand in square brackets, D forms with d. Residues, ends and D or L forms follow the SMILES beside them. *: point of attachment. Nle = CCCC[C@H](N)C(=O)O; Nva = CCC[C@H](N)C(=O)O; Cbz = O=C(OCc1ccccc1)*

Assay [1] deals with T1, caspase-3-like activity in Jurkat T cell extract (Homo sapiens, UniProt P42574).
T1 construct: endogenous in cells; host or cells: Jurkat T cell whole cell extract
T1 sequence (P42574 29-175 limits assumed): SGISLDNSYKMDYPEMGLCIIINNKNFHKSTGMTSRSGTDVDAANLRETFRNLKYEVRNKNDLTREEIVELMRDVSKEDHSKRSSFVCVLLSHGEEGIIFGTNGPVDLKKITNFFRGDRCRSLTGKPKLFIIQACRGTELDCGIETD
T1 sequence (P42574 176-277 limits assumed): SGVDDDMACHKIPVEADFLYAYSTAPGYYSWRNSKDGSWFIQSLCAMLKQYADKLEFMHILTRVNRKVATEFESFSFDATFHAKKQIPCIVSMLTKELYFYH
The assay is described as follows: Caspase-3 activity assay in Jurkat T cell extract. It is filed as biochemical. Here is the method:
Calpain I and Caspase-3 activities assays with tea polyphenols—To measure calpain I activity, 3 μg purified calpain I (Human Erythrocytes, Calbiochem) is incubated with 40 μM of a fluorogenic peptide substrate, Suc-Leu-Tyr-AMC (Calbiochem), for 30 min at 37° C. in 100 μl of assay buffer (50 mM Tris-HCl, pH 7.5, containing 50 mM NaCl, 1 mM EDTA, 1 mM EGTA, 5 mM β-Mercaptoethanol, 5 mM CaCl2, and 0.1% CHAPS), with or without EGCG. After incubation, the reaction mixture is diluted to 200 μl with the assay buffer, and the hydrolyzed AMCs are quantified as described above. For caspase-3 activity assay, the whole cell extract (3.5 μg) from Jurkat T cells is incubated for 90 min at 37° C. with 20 μM of a fluorogenic peptide substrate, Ac-Asp-Glu-Val-Asp-AMC. These procedures were similar to those of the proteasome assay with cell free extracts described above.

The target of assay [2] is chymotrypsin-like activity of purified 20S proteasome (UniProt Q9P992). It is filed as biochemical. To be noted: for IC50: read-out: IC50 towards the chymotrypsin-like activity of purified 20S proteasome. The protocol:
(§1) FIG. 8. […] A). […] Initially, 0.5 μg of purified 20S proteasome is incubated with 20 μM of a fluorogenic peptide substrate, Suc-Leu-Leu-Val-Tyr-AMC, for 30 min at 37° C. in 100 μl of assay buffer (20 mM Tris-HCl, pH 8.0) with various concentrations of tannic acid. After incubation, the reaction mixture is diluted to 200 μl with the assay buffer, followed by measurement of the hydrolyzed 7-amido-4-methyl-coumarin (AMC) groups using a fluorometer with an excitation filter of 380 nm and an emission filter of 460 nm. B). […] Tannic acid (0.3 μg/ml) and Glucose (180 μg/ml) are used in the proteasome activity assay as described above. C). […] Purified calpain I (3 μg) protein is incubated with 40 μM of a fluorogenic peptide substrate, Suc-Leu-Tyr-AMC, for 30 min at 37° C. in 100 μl of assay buffer (50 mM Tris-HCl, pH 7.5, containing 50 mM NaCl, 1 mM EDTA, 1 mM EGTA, 5 mM β-Mercaptoethanol, 5 mM CaCl2, and 0.1% CHAPS) in the absence (control) or presence of 5 μg/ml of tannic acid or 0.18 μg/ml of calpeptin (calpain inhibitor).
(§2) Inhibition of the proteasome activity in vitro by tea polyphenols—To measure the 20S proteasome chymotrypsin-like activity, 0.5 μg of a purified 20S proteasome (Calbiochem) is incubated with 20 μM of a fluorogenic peptide substrate, Suc-Leu-Leu-Val-Tyr-AMC (Calbiochem), for 30 min at 37° C. in 100 μl of assay buffer (20 mM Tris-HCl, pH 8.0), with or without tea polyphenols (purity >95%; Sigma) or tea extract. After incubation, the reaction mixture is diluted to 200 μl with the assay buffer, followed by measurement of the hydrolyzed 7-amido-4-methyl-coumarin (AMC) groups using a VersaFluor™ Fluorometer with an excitation filter of 380 nm and an emission filter of 460 nm (Bio-Rad).

The target of a further assay is T2, purified calpain I (Homo sapiens, UniProt P07384).
T2 construct: 3 μg purified calpain I (Human Erythrocytes, Calbiochem) is incubated; purchased Calbiochem; host or cells: human erythrocytes (tissue-purified)
T2 sequence (P07384 1-714): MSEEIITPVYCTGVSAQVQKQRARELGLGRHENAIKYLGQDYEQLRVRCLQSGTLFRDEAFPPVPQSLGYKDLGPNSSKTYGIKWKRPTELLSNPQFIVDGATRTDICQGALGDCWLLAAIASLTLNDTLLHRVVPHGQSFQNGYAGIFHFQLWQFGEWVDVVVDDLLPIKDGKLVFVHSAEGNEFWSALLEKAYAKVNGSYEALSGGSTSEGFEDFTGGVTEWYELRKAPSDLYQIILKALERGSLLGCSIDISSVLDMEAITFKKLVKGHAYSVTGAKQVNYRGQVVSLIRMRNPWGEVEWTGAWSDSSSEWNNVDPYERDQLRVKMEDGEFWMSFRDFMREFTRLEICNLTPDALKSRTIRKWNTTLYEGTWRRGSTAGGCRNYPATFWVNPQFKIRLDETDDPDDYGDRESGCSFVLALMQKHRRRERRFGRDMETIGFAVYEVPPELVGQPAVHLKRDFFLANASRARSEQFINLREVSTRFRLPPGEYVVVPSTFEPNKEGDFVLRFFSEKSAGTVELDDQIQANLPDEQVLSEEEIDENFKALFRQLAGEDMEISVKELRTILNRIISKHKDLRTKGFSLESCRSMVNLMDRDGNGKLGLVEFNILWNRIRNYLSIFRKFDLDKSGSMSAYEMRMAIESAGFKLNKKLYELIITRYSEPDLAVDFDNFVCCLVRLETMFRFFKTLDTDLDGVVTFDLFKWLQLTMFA
T2 sequence (P04632 1-268 partner): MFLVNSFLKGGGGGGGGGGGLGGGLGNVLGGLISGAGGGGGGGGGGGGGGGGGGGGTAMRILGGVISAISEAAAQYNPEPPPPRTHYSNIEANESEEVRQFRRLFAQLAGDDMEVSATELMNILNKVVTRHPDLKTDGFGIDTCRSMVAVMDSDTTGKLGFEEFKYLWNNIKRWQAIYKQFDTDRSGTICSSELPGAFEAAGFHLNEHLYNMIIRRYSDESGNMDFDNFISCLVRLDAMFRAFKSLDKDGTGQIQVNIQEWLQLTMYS
The assay is described as follows: Calpain I activity assay. It is filed as biochemical. To be noted: FIG. 3B: EGCG 10 μM, calpeptin 1 μM. The protocol: as §1

Assay [3] deals with chymotrypsin-like activity of purified 20S proteasome. It is filed as biochemical. To be noted: read-out: IC50 towards the chymotrypsin-like activity of purified 20S proteasome. Here is the method:
as §1, §2

Assay [4] deals with T3, proteasome chymotrypsin-like activity in living Jurkat cells (Homo sapiens, UniProt P28074).
T3 construct: endogenous in cells; host or cells: Jurkat T cells (whole cell extract or intact cells)
The assay is described as follows: Proteasome chymotrypsin-like activity in living Jurkat T cells. It counts as cell-based. The following applies: 10 μM, living Jurkat cells. The protocol: FIG. 10. Inhibition of the chymotrypsin-like activity by tannic acid in intact Jurkat T cells. Intact Jurkat T cells (1×10^5 cells/ml/well) are cultured in 24-well plates. These cells are first incubated for 12 h with various concentrations of tannic acid as indicated, followed by an additional 2 h-incubation with a fluorogenic peptide substrate, Suc-Leu-Leu-Val-Tyr-AMC for the chymotrypsin-like activity. Then, cell medium (200 μl per sample) is collected and used for measurement of free AMCs.
Inhibition of the proteasome activity in living cells by tea polyphenols—To measure inhibition of the chymotrypsin-like activity in living tumor cells, Jurkat T (1×10^5 cells/ml/well), MCF7 or PC-3 cells (1×10^4 cells/ml/well) are cultured in 24-well plates. These cells are first incubated for 12 h with various concentrations of EGCG, EGC, β-lactone or LLnL, followed by an additional 2 h-incubation with fluorogenic peptide substrates, Suc-Leu-Leu-Val-Tyr-AMC for the chymotrypsin-like activity and Z-Gly-Gly-Arg-AMC for the trypsin-like activity. After that, cell medium (200 μl per sample) is collected and used for measurement of free AMCs.

Assay [5] addresses T4, proteasome activity in MCF-7 cells (Homo sapiens, UniProt P28072+P28074+Q99436).
T4 construct: endogenous in cells; host or cells: MCF-7 cells, pretreated and then lysed
T4 sequence (P28074 60-263): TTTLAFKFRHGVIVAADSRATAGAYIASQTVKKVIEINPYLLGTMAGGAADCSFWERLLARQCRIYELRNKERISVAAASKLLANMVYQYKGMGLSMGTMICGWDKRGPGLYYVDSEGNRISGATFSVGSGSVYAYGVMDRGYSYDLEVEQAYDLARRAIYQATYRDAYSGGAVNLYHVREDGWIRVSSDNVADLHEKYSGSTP
T4 sequence (P28072 1-239): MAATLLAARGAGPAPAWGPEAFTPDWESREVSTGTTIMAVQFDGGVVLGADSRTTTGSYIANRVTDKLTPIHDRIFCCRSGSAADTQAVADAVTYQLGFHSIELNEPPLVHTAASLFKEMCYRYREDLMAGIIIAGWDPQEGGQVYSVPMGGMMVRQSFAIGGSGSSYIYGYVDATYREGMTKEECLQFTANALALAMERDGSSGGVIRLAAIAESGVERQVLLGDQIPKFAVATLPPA
T4 sequence (Q99436 44-277): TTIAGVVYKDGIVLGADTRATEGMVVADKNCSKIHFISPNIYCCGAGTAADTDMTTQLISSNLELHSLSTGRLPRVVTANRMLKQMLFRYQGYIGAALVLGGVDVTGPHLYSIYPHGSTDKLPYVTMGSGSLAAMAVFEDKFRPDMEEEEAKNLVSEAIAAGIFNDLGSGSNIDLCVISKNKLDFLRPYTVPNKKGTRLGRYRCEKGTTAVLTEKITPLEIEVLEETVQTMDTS
As to the kind of experiment: Proteasome activity in lysate of pretreated MCF-7 cells. It is filed as cell-based. To be noted: MCF-7 cells pretreated with inhibitor. Here is the method: (a) The selected cell lines are treated with EGCG (vs. EGC) or ECG (vs. EC) at various concentrations (0-80 μM) for up to 96 h, followed by preparation of protein extracts and measurement of the proteasomal chymotrypsin-like, trypsin-like and PGPH activities and the calpain activity in cell-free assay. […] Thus, a protein extract of breast cancer cells pretreated with EGCG also contains decreased levels of the proteasome activity.

chymotrypsin-like activity of purified 20S proteasome (UniProt Q9P992), sequence (Q9P992 whole entry): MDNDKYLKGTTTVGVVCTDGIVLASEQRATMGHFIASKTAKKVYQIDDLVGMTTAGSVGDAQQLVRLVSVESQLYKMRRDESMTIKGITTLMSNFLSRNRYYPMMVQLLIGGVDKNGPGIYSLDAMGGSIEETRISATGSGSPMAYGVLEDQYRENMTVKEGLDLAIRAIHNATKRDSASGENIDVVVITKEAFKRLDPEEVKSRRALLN
chymotrypsin-like activity of purified 20S proteasome, sequence (Q9P992 whole entry): as above

With Ac-DEVD-CMK [reference compound], in assay [1], the “inhibition of caspase-3-like activity (in words)” value was “blocked”. Regarding (−)-gallocatechin-3-gallate [GCG], in assay [2], the IC50 came to 0.187 µM. Turning to `CCCC[C@@H](C=O)NC(=O)[C@H](CC(C)C)NC(=O)OCc1ccccc1` [Calpeptin, calpeptin, reference compound], the “inhibition of purified calpain activity (in words)” value against purified calpain I is given as “able to inhibit”.

As to `O=C(O)c1cc(O)c(O)c(O)c1` [gallic acid, reference compound], in assay [3], the IC50 stood at 7100 µM. Besides, in assay [2] (ratio of IC50 to EGCG), the “fold less potent than EGCG” value is 83,000 fold.

(−)-catechin-3-gallate [CG]: the IC50 in assay [2] came to 0.124 µM. `CCCC[C@@H](C=O)NC(=O)[C@H](CC(C)C)NC(=O)[C@H](CC(C)C)NC(C)=O` [LLnL, reference compound] (Ac-Leu-Leu-[Nle]-aldehyde): in assay [4], the “inhibition of chymotrypsin-like activity” value is recorded as 40%.

Turning to `CC(C)[C@H](O)[C@@]12NC(=O)[C@H](C)[C@@H]1OC2=O` [β-lactone, clastolactacystin β-lactone, reference compound], the “inhibition of chymotrypsin-like activity” value in assay [4] is reported as 20%. Further, in assay [2], the IC50 was 0.6 µM. `CCC[C@@H](C=O)NC(=O)[C@H](CC(C)C)NC(=O)[C@H](CC(C)C)NC(=O)OCc1ccccc1` [LLnV] (Cbz-Leu-Leu-[Nva]-aldehyde): in assay [5], the “proteasome activity in lysate of pretreated cells” value is reported as “decreased levels of proteasome activity”. Take `Oc1cc(O)c2c(c1)O[C@H](c1cc(O)c(O)c(O)c1)[C@@H](O)C2` [GC, (−)-gallocatechin]: in assay [2], the “inhibition of purified 20S proteasome chymotrypsin-like activity (in words)” value is reported as “do not inhibit the proteasome activity”. On to `Oc1cc(O)c2c(c1)OC(c1ccc(O)c(O)c1)C(O)C2` (single isomer, unassigned; (-)) [C, (−)-catechin], for which the “inhibition of purified 20S proteasome chymotrypsin-like activity (in words)” value in assay [2] is “do not inhibit the proteasome activity”. For the molecule (−)-epicatechin-3-gallate [ECG], the IC50 in assay [2] is 0.194 µM. Consider `COC(=O)c1cc(O)c(O)c(O)c1` [methyl gallate, reference compound], for which the “inhibition of purified 20S proteasome chymotrypsin-like activity (in words)” value in assay [2] is reported as “more potent than gallate”.

As a reminder, the IC50 is the midpoint of a concentration-inhibition curve.
